Measured values: patent publication US8841269B2, “Polynucleotides for use in treating and diagnosing cancers” (Creighton University, priority 2010, dated 2014)
“Also recorded” adds a separate entry of the source.

Tests used:
ER-α = assay: Immunoblot of ER-α after transfection in MCF7; type: cell-based, human; details: MCF7, mimics 60 nmol/L
Text: (§1) Immunoblot analysis. For Western blot in FFPE tissues, an established method was followed (Addis et al., 2009, Proteomics 9:3815-23). For MCF7 cell line, let-7 mimics and negative control miRNA (60 nmol/L), or let-7 inhibitors and anti-miR negative control (60 nmol/L) were transfected following the protocol of siPORT NeoFX Transfection Agent (Applied Biosystems), The Western blot procedure was described before (Zhang et al., 2010, J Proteome Res., 9(2):980-989). Antibody information is as follows: ER-α, RB-9016-P1, Thermoscientific; Cyclin D1, sc-8396, Santa Cruz; pS2, ab80782 was Abeam; β-Actin, sc-69879, Santa Cruz.

cyclin D1 = assay: Immunoblot of cyclin D1 after transfection in MCF7; type: cell-based, human; details: MCF7, mimics; for expression of cyclin D1 (protein): after 2 days; for protein expression of cyclin D1: after 6 days
Text: as §1

pS2 = assay: Immunoblot of pS2 after transfection in MCF7; type: cell-based, human; details: MCF7, mimics; for expression of pS2 (protein): after 2 days; for protein expression of pS2: after 6 days
Text: as §1

[1] = system: 3′ UTR of human ER-α36 gene; assay: Luciferase reporter assay, ER-α36 3′ UTR let-7 binding site in pMIR-REPORT; type: cell-based; details: MCF7 cells; for luciferase activity, ER-α36 3′-UTR binding site: 60 nmol/L mimics
Text: A fragment of the 3′ UTR of human ER-α36 gene, which harbors the putative let-7 target sites, was synthesized (IDT, Coralville, Iowa). With the SpeI and HindIII restriction sites at the ends, respectively, the sense strand is 5′-ctag[…] (SEQ ID NO:41) and the antisense strand is 5′-agct[…] (SEQ ID NO:42). The sense and antisense oligonucleotides were annealed and ligated into the SpeI/HindIII sites of the pMIR-REPORT luciferase vector (Ambion, Austin, Tex.). The sequences were verified by DNA sequencing. Transfection was performed in 24-well plate using Lipofectamine 2000 (Invitrogen). Let-7 mimics, anti-let-7 inhibitors, or negative controls were transfected with 0.25 μg luciferase construct and 0.25 μg β-galactosidase plasmid (Ambion) to check transfection efficiency. Twenty-four hours post-transfection, the luciferase activity was measured using Dual-Glo Luciferase Assay System (Promega, Fitchburg, Wis.) in Veritas Microplate Luminometer (Turner Biosystems, Sunnyvale, Calif.).

ER-α36 = assay: Immunoblot of ER-α36 after transfection; type: cell-based, human; details: MDA-MB-231, two days post transfection of mimics
Description: Let-7 miRNA or negative control #1 miRNA of 60 nmol/L (Ambion, Austin, Tex.) was transfected into cells with the siPORT NeoFX reagent (Ambion, Austin, Tex.) following the manufacturer's protocol.
Cells were lysed with NP40 cell lysis buffer (250 mM NaCl, 50 mM Tris-HCl, pH 7.4, 5 mM EDTA, 50 mM NaF, 1 mM Na3VO4, 1% Nonidet P40, 1 mM PMSF, proteinase and phosphoproteinase inhibitor cocktails). The protein was also extracted from FFPE sections. FFPE sections (50 μm thick) were transferred into a microcentrifuge tube and treated with xylene, followed by vortexing vigorously for 10 seconds. After centrifugation and removal of supernatant, the sections were washed with xylene two more times, followed by one more wash with 1 mL of 100% ethanol. The resultant pellets were vacuum dried, then resuspended in 300 μL of 20 mM Tris-HCl (pH 8.0) and 2% SDS and homogenized. The samples were then boiled at 100° C. for 20 minutes and incubated at 60° C. for 1 hour. After centrifugation at 10,000 g for 15 min at 4° C., the supernatant protein was saved for immunoblot analysis.
After mixed with gel-loading buffer and boiled for 5 minutes, the protein samples were separated with 10% SDS-PAGE and transferred to a PVDF membrane (Millipore, Billerica, Mass.). […] Gel density was quantified with Quantity One and expressed as a relative value against β-actin. […]

[2] = Stability of miRNAs in serum (room temperature, freeze/thaw); type: physicochemical, human; details: serum from a healthy person, freeze/thaw up to eight times
Description: (§2) FIG. 21. Stability of miRNAs in room temperature for number of time points. 300 μl of sera from a healthy person was thawed on ice and lysed with an equal volume of 2× Denaturing Solution (Ambion). RNA was isolated spiked sera using the mirVana PARIS kit following the manufacturer's protocol for liquid samples (Ambion). RNA was eluted with 50 μl of nuclease-free water. This experiment was performed in triplicates.
as §2, with “22.” for “21.”, “freeze/thaws.” for “room temperature for number of time points.”, “ice, exogenous miRNAs were spiked in,” for “ice”, “and then performed freeze/thaw cycles for the indicated times, then” for “and”
Second, we wanted to know whether our lab conditions such as temperature and freezing and thawing affect the stability of miRNAs. We selected a serum sample from healthy […], and incubated in room temperature for a series of time points (spiked three exogenous miRNAs as external controls) (FIG. 21). As expected, the selected miRNAs were very stable throughout the experiment. This observation is in consistent with the literature (Mitchell et al., 2008, Proc. Natl. Acad. Sci. U.S.A 105:10513-8). […]

| Substance | expression of ER-α (protein) (ER-α; after 2 days) | expression of ER-α (protein) (ER-α; after 6 days) | expression of cyclin D1 (protein) (cyclin D1) | protein expression of cyclin D1 (cyclin D1) | expression of pS2 (protein) (pS2) | protein expression of pS2 (pS2) | luciferase activity, ER-α36 binding site [1] | luciferase activity, mutated ER-α36 binding sequence [1] | luciferase activity, ER-α36 3′-UTR binding site [1] | ER-α36 protein level (ER-α36) | stability in repeated freeze/thaws [2] |
| --- | --- | --- | --- | --- | --- | --- | --- | --- | --- | --- | --- |
| let-7b: let-7b miRNA (mimic), 3′-UUGGUGUGUUGGAUGAUGGAGU-5′ (SEQ ID NO:8) (chemistry not given here; listed 3' to 5') | significantly depressed the expression of ER-α | dramatically down-regulated the expression of ER-α | significantly inhibited | significantly decreased | significantly inhibited | significantly suppressed | significantly inhibited the luciferase activity | abrogated the inhibitory effects; also recorded: did not show inhibition | about 60 % of the activity in the control cells | strongly inhibited; also recorded: inhibited | relatively stable |
| let-7i: let-7i miRNA (mimic), 3′-UUGUCGUGUUUGAUGAUGGAGU-5′ (SEQ ID NO:14) (chemistry not given here; listed 3' to 5') | significantly depressed the expression of ER-α | dramatically down-regulated the expression of ER-α | significantly inhibited | modest effect | significantly inhibited | significantly suppressed | significantly inhibited the luciferase activity | abrogated the inhibitory effects; also recorded: did not show inhibition | about 60 % of the activity in the control cells | strongly inhibited; also recorded: inhibited | relatively stable |
